# Results: US9303249B2, “High concentration α-glucosidase compositions for the treatment of Pompe disease” (Amicus Therapeutics, Inc., priority 2012, dated 2016)
# System: GAA KO mice
# Assay: Tissue glycogen reduction after repeat SQ with varying 1-DNJ (Example 16)
# Assay type: in vivo, mouse
# Details: Lumizyme 20 mg/kg SQ alone, 4 administrations, 14 days after last
# Method: 14-week old male GAA KO mice in groups of 7 were used in the present study. Each group of mice was administered one of the following treatments:
# Each of the treatments was administered to their respective treatment group for a period of 2 weeks. The treatments were administered on Monday and Thursday of each week. SQ injections were administered between the shoulder blades of each mouse receiving treatment. A total of 4 doses were administered to each study animal.
# Tissue samples were collected to determine rhGAA uptake 3 days following the last dose of the study (i.e., 3 days post dose 4). Tissue samples included heart, tongue, diaphragm, triceps, quads, gastrocnemius, ventral skin and dorsal skin from the SQ injection site. Tissue samples were also collected to determine glycogen concentration 14 days following the last dose of the study (i.e., 14 days post dose 4).
# FIGS. 47-54 show tissue GAA activity 3 days following the final administration, and glycogen levels 14 days following the final administration. GAA activities in tissues were determined using a 4-MUG fluorogenic substrate assay. Glycogen levels were determined using a glycogen assay (see Example 9 for method). Lumizyme® alone administered subcutaneously led to uptake of enzyme in all investigated tissues following repeat administrations.
substance,measurement,setting,value
"Lumizyme®: alglucosidase alfa, recombinant human acid α-glucosidase from Genzyme Corporation",Glycogen (% Reduction),Biceps,45%
same,Glycogen (% Reduction),Diaphragm,8%
same,Glycogen (% Reduction),Gastrocnemius,10%
same,Glycogen (% Reduction),Heart,15%
same,Glycogen (% Reduction),Quadriceps,9%
same,Glycogen (% Reduction),Skin,15%
same,Glycogen (% Reduction),Tongue,10%
same,Glycogen (% Reduction),Triceps,64%
